Data taken from patent publication US20190388421A1, “NOVEL COMPOUNDS AND PHARMACEUTICAL COMPOSITIONS THEREOF FOR THE TREATMENT OF FIBROSIS” (Galapagos NV, priority 2016, published 2019).

Key:
[1] = molecular target: T1, human GPCR sphingosine 1-phosphate receptor 2 (S1PR2) (Homo sapiens, UniProt O95136); test: S1P2 antagonist assay (Ca2+ flux, S1P at EC80); format: cell-based; details: CHO-S1PR2 cells, highest concentration 20 μM
T1 construct: host or cells: CHO
How it was run: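 CHO cells stably overexpressing human S1PR2, serum-starved 1 h and loaded with Fluo8 dye, were read for 3 min after compound addition, then stimulated with S1P at EC80 after 15 min at 37 °C. Top concentration 20 μM in a 10-point 1/3 series; Ca2+ fluorescence ratio normalized to vehicle and S1P EC80, giving EC50.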

[2] = molecular target: T2, human GPCR sphingosine 1-phosphate receptor 1 (S1PR1) (Homo sapiens, UniProt P21453); test: S1PR1 selectivity assay (Ca2+ flux, antagonist); format: cell-based; details: S1P1 antagonist EC50, CHO cells overexpressing human S1PR1 and Gq protein
T2 construct: host or cells: CHO
How it was run: (§1)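 CHO cells stably overexpressing human S1PR1 or S1PR5 with Gq were preincubated with compound 15 min at 37 °C, then stimulated with S1P at EC80 (S1PR1) or an S1PR5-specific agonist (S1PR5). Ca2+ fluorescence was read for 3 min; 10-point 1/3 dilutions from 20 μM final, normalized to vehicle and EC80 trigger, gave EC50.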

[3] = molecular target: T3, human GPCR sphingosine 1-phosphate receptor 5 (S1PR5) (Homo sapiens, UniProt Q9H228); test: S1PR5 selectivity assay (Ca2+ flux, antagonist, S1PR5 specific agonist trigger); format: cell-based; details: S1P5 antagonist EC50, CHO cells overexpressing human S1PR5 and Gq protein
T3 construct: host or cells: CHO
How it was run: as §1

S1PR2 = molecular target: T4, S1PR2 (Homo sapiens, UniProt O95136); test: GTP-γS binding assay ([35S]GTPγS, S1P at EC80, S1PR2 membranes); format: biochemical; details: membranes from stable cell line over expressing S1PR2, read-out: S1PR2 EC
T4 construct: expressed in transfected cells
How it was run: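 Compounds tested against S1P at its EC80 on membranes (2.5 μg/well) from a stable S1PR2-overexpressing line, pre-incubated with 1 μM GDP 15 min at 4 °C. Buffer: 20 mM Tris pH 7.5, 10 mM MgCl2, 100 mM NaCl, 0.1% fatty-acid-free BSA, 50 ug/ml saponin. Incubated 4 h at room temperature; [35S]GTPγS binding read by WGA SPA beads.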

HFL-1 cells [4] = test: IL8 assay (S1P induced IL-8 production); format: cell-based; details: Homo sapiens, HFL1; S1P (1 μM) induced IL-8, HFL-1 cells, without HSA
How it was run: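 Serum-starved human fetal lung fibroblasts were preincubated with compound for 1 h at 37° C (10-point, 1/3 dilution, top 30 μM, 0.3% DMSO). S1P at 1 μM final was then added for 16–24 h, and IL-8 in the supernatant was measured by ELISA.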

HFL-1 cells [5] = test: IL8 assay in the presence of Human Serum Albumin; format: cell-based; details: HFL1, S1P (5 μM) induced IL-8, HFL-1 cells, with 2% HSA, read-out: HSA IL8 EC50
How it was run: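 Cells serum-starved with 1.95% HSA, pre-treated 1 h with compound (10-point 1/3 dilution from 30 μM, 0.3% DMSO), then stimulated with 5 μM S1P for 16 to 24 h at 37° C. Supernatant IL-8 measured by ELISA.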

T1 sequence (O95136 whole entry): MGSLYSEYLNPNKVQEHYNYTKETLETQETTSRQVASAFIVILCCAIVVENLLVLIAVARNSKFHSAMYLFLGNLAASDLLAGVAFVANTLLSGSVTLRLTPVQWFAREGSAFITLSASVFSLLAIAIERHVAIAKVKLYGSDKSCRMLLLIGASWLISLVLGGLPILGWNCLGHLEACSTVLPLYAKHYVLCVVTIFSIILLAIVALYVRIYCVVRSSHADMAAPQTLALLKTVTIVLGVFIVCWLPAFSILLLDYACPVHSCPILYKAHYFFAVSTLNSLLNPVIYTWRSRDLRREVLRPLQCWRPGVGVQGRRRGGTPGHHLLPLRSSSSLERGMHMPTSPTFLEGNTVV
T4 sequence (O95136 whole entry): as above
T3 sequence (Q9H228 whole entry): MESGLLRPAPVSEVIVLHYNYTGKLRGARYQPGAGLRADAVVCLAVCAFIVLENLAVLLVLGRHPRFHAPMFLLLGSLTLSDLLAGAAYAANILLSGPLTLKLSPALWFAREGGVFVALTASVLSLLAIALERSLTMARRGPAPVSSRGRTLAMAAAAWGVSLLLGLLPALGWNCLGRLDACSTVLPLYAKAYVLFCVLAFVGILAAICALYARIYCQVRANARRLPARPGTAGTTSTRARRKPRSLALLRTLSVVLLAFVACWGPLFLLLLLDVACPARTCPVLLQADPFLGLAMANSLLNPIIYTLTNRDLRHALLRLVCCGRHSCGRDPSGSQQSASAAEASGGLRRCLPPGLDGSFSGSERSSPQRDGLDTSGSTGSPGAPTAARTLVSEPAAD
T2 sequence (P21453 whole entry): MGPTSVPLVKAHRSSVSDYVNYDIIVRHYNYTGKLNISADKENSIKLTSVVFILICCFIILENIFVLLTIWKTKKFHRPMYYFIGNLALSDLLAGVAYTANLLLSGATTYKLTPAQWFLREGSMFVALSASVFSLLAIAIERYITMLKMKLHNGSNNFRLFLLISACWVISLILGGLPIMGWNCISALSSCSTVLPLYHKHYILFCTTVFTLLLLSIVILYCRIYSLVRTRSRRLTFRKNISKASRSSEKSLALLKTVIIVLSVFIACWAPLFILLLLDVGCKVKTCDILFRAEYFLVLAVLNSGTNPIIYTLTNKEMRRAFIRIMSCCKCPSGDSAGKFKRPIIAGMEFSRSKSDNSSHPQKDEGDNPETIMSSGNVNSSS

| SMILES | EC50 [1] | EC50 [2] | EC50 [3] | EC50 (S1PR2) | EC50 (HFL-1 cells [4]) | IC50 (HFL-1 cells [5]) |
| --- | --- | --- | --- | --- | --- | --- |
| CCOc1cc(NC(=O)NCc2cc(C)c(-c3cn(CC4COCCO4)nc3C(F)(F)F)nn2)cc(C(F)(F)F)n1 (stereo not drawn) [Compound 55, 1-[[6-[1-(1,4-dioxan-2-ylmethyl)-3-(trifluoromethyl)pyrazol-4-yl]-5-methyl-pyridazin-3-yl]methyl]-3-[2-ethoxy-6-(trifluoromethyl)-4-pyridyl]urea] | 0.0169 µM | ≥ 19.8 µM | 6.61 µM | 0.338 µM | 0.0358 µM | 0.179 µM |
| CCOc1nc(C#N)cc(NC(=O)NCc2cc(C)c(-c3cn(C)nc3C(F)(F)F)nn2)c1C [Compound 57, 1-(6-cyano-2-ethoxy-3-methyl-4-pyridyl)-3-[[5-methyl-6-[1-methyl-3-(trifluoromethyl)pyrazol-4-yl]pyridazin-3-yl]methyl]urea] | 0.0076 µM | 6.61 µM | 4.62 µM | 0.0244 µM | 0.0009 µM | 0.0173 µM |
| Cc1cc(CNC(=O)Nc2cc(C#N)nc(OCC(F)F)c2C)nnc1-c1cn(C)nc1C(F)(F)F [Compound 59, 1-(6-cyano-2-(2,2-difluoroethoxy)-3-methyl-4-pyridyl]-3-[[5-methyl-6-[1-methyl-3-(trifluoromethyl)pyrazol-4-yl]pyridazin-3-yl]methyl]urea] | 0.0072 µM | 6.61 µM | 5.5 µM | 0.0385 µM | 0.0009 µM | 0.116 µM |
| Cn1cc(-c2nnc(CNC(=O)Nc3cc(Cl)nc(OCC(F)F)c3)cc2N2CC(F)(F)C2)c(C(F)(F)F)n1 [Compound 60, 1-[2-chloro-6-(2,2-difluoroethoxy)-4-pyridyl]-3-[[5-(3,3-difluoroazetidin-1-yl)-6-[1-methyl-3-(trifluoromethyl)pyrazol-4-yl]pyridazin-3-yl]methyl]urea] | 3.28 µM | 2.8 µM | 6.61 µM | 1.52 µM | 0.166 µM | 4.34 µM |
| CN(C)c1cc(CNC(=O)Nc2cc(Cl)nc(OCC(F)F)c2)nnc1-c1cn(C)nc1C(F)(F)F [Compound 63, 1-[2-chloro-6-(2,2-difluoroethoxy)-4-pyridyl]-3-[[5-(dimethylamino)-6-[1-methyl-3-(trifluoromethyl)pyrazol-4-yl]pyridazin-3-yl]methyl]urea] | 0.0668 µM | 2.08 µM | 11 µM | 0.298 µM | 0.0554 µM | 0.829 µM |
| COc1cc(CNC(=O)Nc2cc(Cl)nc(OCC(F)F)c2)nnc1-c1cn(C)nc1C(F)(F)F [Compound 64, 1-[2-chloro-6-(2,2-difluoroethoxy)-4-pyridyl]-3-[[5-methoxy-6-[1-methyl-3-(trifluoromethyl)pyrazol-4-yl]pyridazin-3-yl]methyl]urea] | 0.0085 µM | 1.62 µM | 4.38 µM | 0.0487 µM | 0.0166 µM | 0.119 µM |
| CN(C)Cc1cc(CNC(=O)Nc2cc(Cl)nc(OCC(F)F)c2)nnc1-c1cn(C)nc1C(F)(F)F [Compound 65, 1-[2-chloro-6-(2,2-difluoroethoxy)-4-pyridyl]-3-[[5-(dimethylamino-methyl)-6-[1-methyl-3-(trifluoromethyl)pyrazol-4-yl]pyridazin-3-yl]methyl]urea] | 1.62 µM | 6.61 µM | ≥ 19.8 µM | 1.47 µM | 2.63 µM | 10 µM |
| CCOc1cc(NC(=O)NCc2cc(C)c(-c3cnn(C)c3C)nn2)cc(C(F)(F)F)n1 [Compound 69] | 0.945 µM | ≥ 19.8 µM | ≥ 19.8 µM | 0.751 µM | 0.108 µM | 9.95 µM |
| CCOc1nc(C)cc(NC(=O)NCc2cc(C)c(-c3cn(C)nc3C(F)(F)F)nn2)c1Cl [Compound 71, 1-(3-chloro-2-ethoxy-6-methyl-4-pyridyl)-3-[[5-methyl-6-[1-methyl-3-(trifluoromethyl)pyrazol-4-yl]pyridazin-3-yl]methyl]urea] | 0.009 µM | 6.61 µM | 6.61 µM | 0.025 µM | 0.002 µM | 0.056 µM |
| CCOc1nc(C)cc(NC(=O)NCc2cc(C)c(-c3cn(C)nc3C(F)(F)F)nn2)c1C [Compound 72, 1-(2-ethoxy-3,6-dimethyl-4-pyridyl)-3-[[5-methyl-6-[1-methyl-3-(trifluoromethyl)pyrazol-4-yl]pyridazin-3-yl]methyl]urea] | 0.009 µM | 16.5 µM | 11 µM | 0.025 µM | 0.002 µM | 0.047 µM |
| Cc1cc(NC(=O)NCc2cc(C)c(-c3cn(C)nc3C(F)(F)F)nn2)c(C)c(OCC(F)F)n1 [Compound 74, 1-[2-(2,2-difluoroethoxy)-3,6-dimethyl-4-pyridyl]-3-[[5-methyl-6-[1-methyl-3-(trifluoromethyl)pyrazol-4-yl]pyridazin-3-yl]methyl]urea] | 0.022 µM | 13 µM | ≥ 19.8 µM | 0.081 µM | 0.015 µM | 0.118 µM |
| Cc1cc(NC(=O)NCc2cc(C)c(-c3cn(C)nc3C(F)(F)F)nn2)cc(OCC(F)F)n1 [Compound 75, 1-[2-(2,2-difluoroethoxy)-6-methyl-4-pyridyl]-3-[[5-methyl-6-[1-methyl-3-(trifluoromethyl)pyrazol-4-yl]pyridazin-3-yl]methyl]urea] | 0.059 µM | ≥ 19.8 µM | 2.89 µM | 0.282 µM | 0.038 µM | 0.223 µM |
| CCOc1cc(N/C(=N/C#N)NCc2cc(C)c(-c3cn(C)nc3C(F)(F)F)nn2)cc(C(F)(F)F)n1 [Compound 76, 2-cyano-1-[2-ethoxy-6-(trifluoromethyl)-4-pyridyl]-3-[[5-methyl-6-[1-methyl-3-(trifluoromethyl)pyrazol-4-yl]pyridazin-3-yl]methyl]guanidine] | 0.017 µM | 13.2 µM | 6.61 µM | 0.062 µM | 0.008 µM | 0.111 µM |
| CCOc1nc(C)cc(N/C(=N/C#N)NCc2cc(C)c(-c3cn(C)nc3C(F)(F)F)nn2)c1C [Compound 78, 2-cyano-1-(2-ethoxy-3,6-dimethyl-4-pyridyl)-3-[[5-methyl-6-[1-methyl-3-(trifluoromethyl)pyrazol-4-yl]pyridazin-3-yl]methyl]guanidine] | 0.106 µM | ≥ 19.8 µM | ≥ 19.8 µM | 0.863 µM | 1.09 µM | 1.25 µM |
| Cc1cc(NC(=NC#N)NCc2cc(C)c(-c3cn(C)nc3C(F)(F)F)nn2)c(C)c(OCC(F)F)n1 [Compound 79, 2-cyano-1-[2-(2,2-difluoroethoxy)-3,6-dimethyl-4-pyridyl]-3-[[5-methyl-6-[1-methyl-3-(trifluoromethyl)pyrazol-4-yl]pyridazin-3-yl]methyl]guanidine] | 0.546 µM | ≥ 19.8 µM | ≥ 19.8 µM | 2.13 µM | 0.439 µM | 7.04 µM |
| CCOc1nc(C(F)(F)F)cc(N/C(=N/C#N)NCc2cc(C)c(-c3cn(C)nc3C(F)(F)F)nn2)c1C [Compound 80, 2-cyano-1-[2-ethoxy-3-methyl-6-(trifluoromethyl)-4-pyridyl]-3-[[5-methyl-6-[1-methyl-3-(trifluoromethyl)pyrazol-4-yl]pyridazin-3-yl]methyl]guanidine] | 0.013 µM | ≥ 19.8 µM | 6.61 µM | 0.045 µM | 0.003 µM | 0.239 µM |
| CCOc1cc(NC(=O)NCc2cc(C)c(N3CCC(F)(F)C3)nn2)cc(Cl)n1 [Compound 81, 1-(2-Chloro-6-ethoxy-pyridin-4-yl)-3-[6-(3,3-difluoro-pyrrolidin-1-yl)-5-methyl-pyridazin-3-ylmethyl]-urea] | 0.006 µM | 6.61 µM | 3.77 µM | 0.197 µM | 0.032 µM | 10 µM |
| CCOc1cc(NC(=O)NCc2cc(C)c(N3CC(C)OC(C)C3)nn2)cc(Cl)n1 (stereo not drawn) [Compound 82, 1-(2-Chloro-6-ethoxy-pyridin-4-yl)-3-[6-(2,6-dimethyl-morpholin-4-yl)-5-methyl-pyridazin-3-ylmethyl]-urea] | 0.006 µM | 6.61 µM | 0.341 µM | 0.156 µM | 0.0535 µM | 0.731 µM |
